From ChEMBL document CHEMBL1138196, “Antitrypanosomal activity of 5'-deoxy-5'-(iodomethylene)adenosine and related 6-N-cyclopropyladenosine analogues” (J Med Chem, 2006) come the findings set out here.

The test system of one test is Trypanosoma brucei. The test can be described thus: Antitrypanosomal activity against Trypanosoma brucei. The format is functional, organism-based.
The subject of test [1] is Vesicular stomatitis virus. As to the kind of experiment: Antiviral activity against VSV in BHK cells. The format is functional, organism-based.

In brackets after ≈: the same amount, converted by molar mass.

One may read the IC50 as the concentration that gives 50% inhibition. Low values mean inhibition by little substance, high ones a need for much substance. In the test on Trypanosoma brucei, `Nc1ncnc2c1ncn2[C@@H]1O[C@H](CSCCO)[C@@H](O)[C@H]1O` showed a 50% inhibitory concentration (IC50) of 0.16 µg/mL (≈ 0.489 µM). The same measure, in the same setting: the value for `Nc1ncnc2c1ncn2[C@@H]1O[C@H](/C=C\I)[C@@H](O)[C@H]1O` was 45 µg/mL (≈ 116 µM). Turning to `CC(=O)OCCSC[C@H]1O[C@@H](n2cnc3c(N)ncnc32)[C@H](OC(C)=O)[C@@H]1OC(C)=O`, the midpoint of inhibition with Trypanosoma brucei, the IC50, lay at 0.12 µg/mL (≈ 0.265 µM). The same measure, in the same setting: the value for `Nc1ncnc2c1ncn2[C@@H]1O[C@](S)(CO)[C@@H](O)[C@H]1O` was 14 µg/mL (≈ 46.8 µM); that for `O[C@@H]1[C@H](O)[C@@H](/C=C/F)O[C@H]1n1cnc2c(NC3CC3)ncnc21` was 19 µg/mL (≈ 59.1 µM); that for `O[C@@H]1[C@H](O)[C@@H](/C=C/I)O[C@H]1n1cnc2c(NC3CC3)ncnc21` was 12 µg/mL (≈ 28 µM). `Nc1ncnc2c1ncn2[C@@H]1O[C@H](/C=C/I)[C@@H](O)[C@H]1O`: the IC50 came to 9 µg/mL (≈ 23.1 µM) in the test on Trypanosoma brucei and 2 µg/mL (≈ 5.14 µM) in test [1]. `CN(C/C=C\CN)C[C@H]1O[C@@H](n2cnc3c(N)ncnc32)[C@H](O)[C@@H]1O` had a half-maximal inhibitory concentration (IC50) in the test with Trypanosoma brucei of 0.02 µg/mL (≈ 0.0572 µM). In the test on Trypanosoma brucei, `N#C/N=C/[C@H]1O[C@@H](n2cnc3c(NC4CC4)ncnc32)[C@H](O)[C@@H]1O` displayed an IC50 of 19 µg/mL (≈ 57.7 µM).
